Reference: patent US9938301B2, “Dihydropyrimido fused ring derivative as HBV inhibitor” (QILU PHARMACEUTICAL CO., LTD., priority 2014, dated 2018)
Read-outs that look alike come from different tables or passages of the source.

System: HBV DNA in HepG2.2.15 cells
Assay: HBV in vitro dot-blot hybridization test
Format: cell-based, Hepatitis B virus
Method: • 1. Purpose of the test: • The content of HBV DNA in HepG2.2.15 cells was detected by dot-blot hybridization test to evaluate an inhibitory action of the compound on HBV with an EC50 value as an indicator. • 2. Experimental materials: • 2.1 Cell lines: HepG2.2.15 Cells • HepG2.2.15 cell culture media (DMEM/F12, Invitrogen-11330057; 10% serum Invitrogen-10099141; 100 units/mL Penicillin and 10 μg/mL Streptomycin, Invitrogen-15140122; 1% non-essential amino acid, Invitrogen-11140076; 2 mM L-GLUTAMINE, Invitrogen-25030081; 300 µg/ml Geneticin, Invitrogen-10131027 • 2.2 Reagents: • Trypsin (I Invitrogen-25300062) • DPBS (Hyclone-SH30028.01B) • DMSO (Sigma-D2650-100ML) • 96-well cell-culture plate (Corning-3599) • CO2 incubator (HERA-CELL-240) • 20×SSC (Bio-serve Co. Ltd) • Tris-HCl (Aldirch-154563-1KG) • NaOH (Sinopharm 10019718) • NaCl (Sinopharm 10019308) • Hybridization solution (Major BioTech Co. Ltd, IMMUNE GOLD-HYB-500) • DIG Wash and Block Buffer set (Roche-11585762001) • Anti-digoxigenin-AP, Fab fragments from sheep (Roche-11093274910) • 2.3 Materials and Instruments: • Positively-Charged Nylon Membrane (GE-RPN2250B) • Transfer Membrane Instrument (Bio-Rad, 170-6545) • Hybridization Oven (HL-2000 Hybrilinker) • 3. Testing steps and Methods: • 3.1 HepG2.2.15 cells (4×10^4 cells/well) were planted into a 96-well plate, and at 37° C., 5% CO2 cultured overnight. • 3.2 On Day 2, the compounds were diluted in totally 6 concentrations with a dilution gradient of five times. The compounds at different concentrations were added into the culture wells in duplicate. The final concentration of DMSO in the culture media was 1%. 1 μM GLS4 was used as 100% inhibition control; 1% DMSO as 0% inhibition control. • 3.3 On Day 5, replacing with the fresh culture media containing the compound was performed. • 3.4 On Day 8 and Day 9, the culture media in the culture wells was removed, and the cells were harvested for dot-blot hybridization. • The lysate was added into a culture well, and at 37° C. incubating for half an hour to disintegrate cells; the supernatant was obtained by centrifugation and transferred into a new microplate; a denaturation solution was added, after sufficient mixing the denatured sample was transferred and imprinted onto a Nylon membrane, the nucleic acid was fixed onto the membrane by UV cross-linking. • Pre-hybridization: the membrane was incubated at 60° C. in a hybridization solution for 1 hour. • Hybridization: heating the denatured digoxin-labelled HBV DNA probe and incubating at 60° C. overnight. • Membrane Washing: performing high strigency washing twice, low strigency washing for 3 times. • Blocking: incubating the membrane at room temperature in a blocking solution for 30-60 minutes. • Hybridization: diluting the Antibody Solution with the blocking solution, in which the membrane was placed and incubated at room temperature for 30-60 minutes. • Developing: washing the membrane in a Detection Buffer for 5 minutes, followed by adding a developing solution, pressing and exposing. • The photos was saved in tiff format, and a gray value of the dot was quantified with quantity one software. • 3.5 Data Analysis: • 3.5.1 The inhibition percentage was calculated: % Inh.=[1−(sample dot gray value−1 μM GLS4 dot gray value 1)/(DMSO control dot gray value−1 μM GLS4 dot gray value 1)]×100. • 3.5.2 Calculating EC50: the concentration of the compound for 50% inhibition of HBV (EC50) was calculated by using GraphPad Prism Software. • 4.

[1] = Hepatitis B virus, HepG2.2.15, dot-blot hybridization assay, read-out: Concentration for 50% inhibition of HBV (EC50)value
[2] = Hepatitis B virus, HepG2.2.15, summary list of target compounds, Examples 1-165 (same as Table 2), read-out: BIOACTIVITY (inhibitory actions on HBV DNA, EC50)
[3] = summary list of target compounds, Examples 1-165 (same as Table 2), read-out: BIOACTIVITY (inhibitory actions on HBV DNA, EC50)

| SMILES | EC50 [1] [nM] | EC50 [2] [nM] | EC50 (dot-blot hybridization assay, read-out: Concentration for 50% inhibition of HBV (EC50)value) [nM] | EC50 [3] [nM] |
| --- | --- | --- | --- | --- |
| COC(=O)C1=C2C[C@H](NS(N)(=O)=O)CN2C(c2nccs2)=N[C@H]1c1ccc(F)cc1Cl [Example 159] | < 100 | < 100 |  |  |
| CCOC(=O)C1=C2CN(C(=O)C3COC3)CCN2C(c2nccs2)=N[C@H]1c1ccc(F)cc1Br [Example 118] | 100 to 500 | 100 to 500 |  |  |
| CCOC(=O)C1=C2[C@@H](NS(C)(=O)=O)CCN2C(c2nccs2)=N[C@H]1c1ccc(F)cc1Br [Example 146] | 1000 to 5000 | 1000 to 5000 |  |  |
| CCOC(=O)C1=C2CN(C)CCN2C(c2nccs2)=NC1c1ccc(F)cc1Br (racemic) [Example 96] | 1000 to 5000 | 1000 to 5000 |  |  |
| CCOC(=O)C1=C2C[C@H](N[S+]([O-])C(C)(C)C)CN2C(c2nccs2)=N[C@H]1c1ccc(F)cc1Cl (stereo partly shown) [Example 140] | 500 to 1000 | 500 to 1000 |  |  |
| CCOC(=O)C1=C2C[C@H](NS(=O)(=O)C(F)F)CN2C(c2nccs2)=N[C@H]1c1ccc(F)cc1Cl [Example 128] | < 100 | < 100 |  |  |
| CCOC(=O)C1=C2CC(NC(=O)OC(C)C)CN2C(c2nccs2)=N[C@H]1c1ccc(F)cc1Br (stereo partly shown) [Example 46] | 100 to 500 | 100 to 500 |  |  |
| CCOC(=O)C1=C2CN(C3COC3)CCN2C(c2nccs2)=N[C@H]1c1ccc(F)cc1Br [Example 102] | 500 to 1000 | 500 to 1000 |  |  |
| CCOC(=O)C1=C2CCOC(=O)N2C(c2nccs2)=NC1c1ccc(F)cc1Cl (racemic) [Example 111] | 1000 to 5000 | 1000 to 5000 |  |  |
| CC(C)OC(=O)C1=C2C[C@H](NS(C)(=O)=O)CN2C(c2nccs2)=N[C@H]1c1ccc(F)cc1Cl [Example 152] | 100 to 500 | 100 to 500 |  |  |
| CCOC(=O)C1=C2C[C@H](CO)CN2C(c2nccs2)=N[C@H]1c1ccc(F)cc1Br [Example 7] | 100 to 500 | 100 to 500 |  |  |
| CCOC(=O)C1=C2C[C@@H](C#N)CN2C(c2nccs2)=N[C@H]1c1ccc(F)cc1Cl [Example 25] | 1000 to 5000 | 1000 to 5000 |  |  |
| CCOC(=O)C1=C2C[C@H](N(C)S(C)(=O)=O)CN2C(c2nccs2)=N[C@H]1c1ccc(F)cc1Cl [Example 157] | < 100 | < 100 |  |  |
| CCOC(=O)C1=C2C[C@@H](CO)CN2C(c2nccs2)=NC1c1ccc(F)cc1Br (mixture of isomers) [Example 8] | 100 to 500 | 100 to 500 |  |  |
| CCOC(=O)C1=C2CCC(=O)N2C(c2nccs2)=NC1c1ccc(F)cc1Br (racemic) [Example 68] | 1000 to 5000 | 1000 to 5000 |  |  |
| CCOC(=O)C1=C2C[C@H](N3CCOC3=O)CN2C(c2nccs2)=N[C@H]1c1ccc(F)cc1Br [Example 66] | 100 to 500 | 100 to 500 |  |  |
| CCOC(=O)C1=C2CCOC(=O)N2C(c2nccs2)=NC1c1ccc(F)cc1Br (racemic) [Example 107] | 100 to 500 | 100 to 500 |  |  |
| CCOC(=O)CN(C)C[C@@H]1CC2=C(C(=O)OCC)[C@H](c3ccc(F)cc3Br)N=C(c3nccs3)N2C1 [Example 19] | 1000 to 5000 | 1000 to 5000 |  |  |
| CCOC(=O)C1=C2CCCN2C(c2nccs2)=NC1c1ccc(F)cc1C (racemic) [Example 71] | 100 to 500 | 100 to 500 |  |  |
| CCOC(=O)C1=C2CN(S(=O)(=O)NC)CCN2C(c2nccs2)=N[C@H]1c1ccc(F)cc1Br [Example 84] | 100 to 500 | 100 to 500 |  |  |
| CCOC(=O)C1=C2C[C@@H](NS(=O)(=O)C(C)C)CN2C(c2nccs2)=N[C@H]1c1ccc(F)cc1Br [Example 116] | < 100 | < 100 |  |  |
| CCOC(=O)C1=C2C[C@@H](CC#N)CN2C(c2nccs2)=NC1c1ccc(F)cc1Br (mixture of isomers) [Example 11] |  |  | 1000 to 5000 | 1000 to 5000 |

| SMILES | EC50 [1] [nM] | EC50 [2] [nM] | EC50 (dot-blot hybridization assay, read-out: Concentration for 50% inhibition of HBV (EC50)value) [nM] | EC50 [3] [nM] |
| --- | --- | --- | --- | --- |
| CCOC(=O)C1=C2CN(CC(=O)OC)CCN2C(c2nccs2)=N[C@H]1c1ccc(F)cc1Br [Example 98] | 1000 to 5000 | 1000 to 5000 |  |  |
| CCOC(=O)C1=C2CCCC(=O)N2C(c2nccs2)=N[C@H]1c1ccc(F)cc1Br (racemic) [Example 108] | 1000 to 5000 | 1000 to 5000 |  |  |
| CCOC(=O)C1=C2CCN2C(c2nccs2)=NC1c1ccc(F)cc1Br (racemic) [Example 112] | 1000 to 5000 | 1000 to 5000 |  |  |
| CCOC(=O)C1=C2CC(NC(=O)OC)CN2C(c2nccs2)=N[C@H]1c1ccc(F)cc1Br (mixture of isomers) [Example 42] | < 100 | < 100 |  |  |
| COC(=O)N[C@H]1CC2=C(C(=O)OC)[C@H](c3ccc(F)cc3Cl)N=C(c3nccs3)N2C1 [Example 163] | < 100 | < 100 |  |  |
| COC(=O)C1=C2C[C@H](NS(=O)(=O)CCO)CN2C(c2nccs2)=N[C@H]1c1ccc(F)cc1Cl [Example 161] | < 100 | < 100 |  |  |
| CCOC(=O)C1=C2C[C@H](NC(=O)C(F)(F)F)CN2C(c2nccs2)=N[C@H]1c1ccc(F)cc1Cl [Example 142] | 100 to 500 | 100 to 500 |  |  |
| CCOC(=O)C1=C2CN(S(=O)(=O)C3CC3)CCN2C(c2nccs2)=N[C@H]1c1ccc(F)cc1Br [Example 93] | 100 to 500 | 100 to 500 |  |  |
| CCOC(=O)C1=C2C[C@H](NS(C)(=O)=O)CN2C(c2nccs2)=N[C@H]1c1ccc(F)c(F)c1 [Example 148] | 100 to 500 | 100 to 500 |  |  |
| CCOC(=O)C1=C2CC(NS(C)(=O)=O)CN2C(c2nccs2)=N[C@H]1c1ccc(F)cc1Br (stereo partly shown) [Example 58] | < 100 | < 100 |  |  |
| CCOC(=O)C1=C2CC(NC(=O)NC)CN2C(c2nccs2)=N[C@H]1c1ccc(F)cc1Br (stereo partly shown) [Example 52] | 500 to 1000 | 500 to 1000 |  |  |
| CCOC(=O)C1=C2C[C@H](NS(=O)(=O)C(F)(F)F)CN2C(c2nccs2)=N[C@H]1c1ccc(F)cc1Cl [Example 153] | < 100 | < 100 |  |  |
| CCOC(=O)C1=C2C[C@@H](N(C)S(C)(=O)=O)CN2C(c2nccs2)=N[C@H]1c1ccc(F)cc1Br [Example 127] | < 100 | < 100 |  |  |
| CCOC(=O)C1=C2C[C@H](NS(C)(=O)=O)CN2C(c2nccs2)=N[C@H]1c1ccc(F)cc1Br [Example 59] | < 100 | < 100 |  |  |
| CCOC(=O)C1=C2C[C@H](NS(=O)(=O)C3CC3)CN2C(c2nccs2)=N[C@H]1c1ccc(F)cc1Br [Example 62] | < 100 | < 100 |  |  |
| CCOC(=O)C1=C2C[C@@H](CN3CCOCC3)CN2C(c2nccs2)=NC1c1ccc(F)cc1Br (mixture of isomers) [Example 18] |  |  |  | 1000 to 5000 |
| CCOC(=O)C1=C2CN(C)C(=O)CN2C(c2nccs2)=NC1c1ccc(F)cc1Br (racemic) [Example 105] | 500 to 1000 | 500 to 1000 |  |  |
| COC(=O)C1=C2C[C@H](NS(C)(=O)=O)CN2C(c2nccs2)=N[C@H]1c1ccc(F)cc1Cl [Example 149] | < 100 | < 100 |  |  |
| CCOC(=O)C1=C2CC(NS(=O)(=O)NC)CN2C(c2nccs2)=N[C@H]1c1ccc(F)cc1Br (mixture of isomers) [Example 54] | < 100 | < 100 |  |  |
| COC(=O)C1=C2C[C@H](NS(=O)(=O)C(F)(F)F)CN2C(c2nccs2)=N[C@H]1c1ccc(F)cc1Cl [Example 155] | < 100 | < 100 |  |  |
| CCOC(=O)C1=C2C[C@@H](CN3CCOCC3)CN2C(c2nccs2)=NC1c1ccc(F)cc1Br (mixture of isomers) [Example 17] | 1000 to 5000 | 1000 to 5000 |  |  |
